Experimental data reported in paper PMC3914206.

Assays:
panel of 442 kinases [1] = molecular target: T1, panel of 442 kinases (Homo sapiens, UniProt P36897); format: binding; settings: kinase TGFBR1; compound concentration 10 µM
T1 construct: purchased KINOMEscan
T1 sequence (P36897 34-503): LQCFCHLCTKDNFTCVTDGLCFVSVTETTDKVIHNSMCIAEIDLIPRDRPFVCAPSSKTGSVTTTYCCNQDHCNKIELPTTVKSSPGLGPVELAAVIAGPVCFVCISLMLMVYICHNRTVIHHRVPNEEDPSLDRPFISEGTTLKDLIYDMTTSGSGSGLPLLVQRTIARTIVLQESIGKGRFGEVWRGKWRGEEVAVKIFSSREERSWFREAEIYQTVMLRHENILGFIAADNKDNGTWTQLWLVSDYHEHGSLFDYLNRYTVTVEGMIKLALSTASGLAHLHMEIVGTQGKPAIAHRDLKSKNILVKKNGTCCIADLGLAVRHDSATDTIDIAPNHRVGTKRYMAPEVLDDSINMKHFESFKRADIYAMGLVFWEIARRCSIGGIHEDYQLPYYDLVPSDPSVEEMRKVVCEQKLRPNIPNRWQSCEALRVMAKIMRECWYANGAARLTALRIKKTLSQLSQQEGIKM
Text: (§1) We assessed the selectivity of members of this scaffold using the KINOMEscan methodology across a near comprehensive panel of 442 kinases [[18,27]].

panel of 442 kinases [2] = molecular target: T2, panel of 442 kinases (Homo sapiens, UniProt Q9UIK4); format: binding; settings: Compound Concentration 10 µM
T2 construct: purchased KINOMEscan
Text: as §1

T2 sequence (Q9UIK4 whole entry): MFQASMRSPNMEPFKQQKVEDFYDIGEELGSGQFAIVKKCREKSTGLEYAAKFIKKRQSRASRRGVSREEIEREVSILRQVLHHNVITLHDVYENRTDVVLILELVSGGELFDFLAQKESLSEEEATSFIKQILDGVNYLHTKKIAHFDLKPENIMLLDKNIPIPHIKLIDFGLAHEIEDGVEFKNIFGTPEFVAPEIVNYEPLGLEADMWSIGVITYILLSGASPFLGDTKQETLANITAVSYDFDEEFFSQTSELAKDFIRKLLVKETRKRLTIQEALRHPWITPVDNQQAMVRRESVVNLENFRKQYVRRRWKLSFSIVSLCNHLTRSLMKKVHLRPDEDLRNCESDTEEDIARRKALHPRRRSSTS

| Structure (SMILES) | % Ctrl, TGFBR1 (panel of 442 kinases [1]) | KINOMEscan: DAPK2 (panel of 442 kinases [2]) |
| --- | --- | --- |
| CCOc1cc(C(=O)N2CCC(N3CCN(C)CC3)CC2)ccc1Nc1ncc2c(n1)N(C1CCCC1)c1ccccc1C(=O)N2C [Compound 26] | 100 % Ctrl | 99 |
| COc1cc(C(=O)N2CCC(N3CCN(C)CC3)CC2)ccc1Nc1ncc2c(n1)N(C1CCCC1)c1ccccc1C(=O)N2C [Compound 25, 11-cyclopentyl-2-((2-methoxy-4-(4-(4-methylpiperazin-1-yl)piperidine-1-carbonyl)phenyl)amino)-5-methyl-5H-benzo[e]pyrimido[5,4-b][1,4]diazepin-6(11H)-one] | 98 % Ctrl | 90 |
| COc1cc(C(=O)N2CCC(N3CCN(C)CC3)CC2)ccc1Nc1ncc2c(n1)N1CCc3cccc(c31)C(=O)N2C [Compound 24] | 100 % Ctrl | 22 |
| COc1cc(C(=O)N2CCC(N3CCN(C)CC3)CC2)ccc1Nc1ncc2c(n1)N(C)c1ccccc1C(=O)N2C [15 (LRRK2-IN-1)] | 100 % Ctrl | 67 |
